In US20240116857A1 (St. Louis University, priority 2022, published 2024):

Each compound was assayed on E. coli BW25113 (assay: MIC, 2-fold broth dilution, E. coli BW25113). Details: E. coli BW25113; asterisk in column 1-10.
Assay type: cell-based, Escherichia coli

Row | Compound | MIC, μM 1-10
1 | 1,1′-((([1,1′-biphenyl]-4,4′-dicarbonyl)bis(azanediyl))bis(2-bromo-4,1-phenylene))bis(1-methylpiperidin-1-ium) [Example 88] | * (1-10)

Same assay, conditions: E. coli BW25113; asterisk in column >50

Row | Compound | MIC, μM >50
2 | 4,4′-(([1,1′-biphenyl]-4,4′-dicarbonyl)bis(azanediyl))bis(3-hydroxy-N,N,N-trimethylbenzenaminium) [Example 57] | * (>50)
3 | 4,4′-(([1,1′-biphenyl]-4,4′-dicarbonyl)bis(azanediyl))bis(1,2-dimethylpyridin-1-ium) [Example 34] | * (>50)

Same assay, conditions: Escherichia coli; E. coli BW25113; asterisk in column 1-10; read-out: MIC, μM 1-10

Row | Compound | MIC
4 | C[n+]1ccc(Nc2ccc(NC(=O)c3ccc(C(=O)Nc4ccc(Nc5cc[n+](C)cc5)cc4)c(Br)c3)cc2)cc1 [Example 87, 4,4′-((((2-bromoterephthaloyl)bis(azanediyl))bis(4,1-phenylene))bis(azanediyl))bis(1-methylpyridin-1-ium)] | 1 to 10 µM
5 | C[N+](C)(C)c1ccc(NC(=O)c2ccc(-c3ccc(C(=O)Nc4ccc([N+]5(C)CCCCC5)cc4)cc3)cc2)cc1F [Example 129] | 1 to 10 µM
6 | C#CCCCCOc1cc(NC(=O)c2ccc(-c3ccc(C(=O)Nc4ccc([N+](C)(C)C)c(F)c4)cc3)cc2)ccc1[N+](C)(C)C [Example 96, 2-fluoro-4-(4′-((3-(hex-5-yn-1-yloxy)-4-(trimethylammonio)phenyl)carbamoyl)-[1,1′-biphenyl]-4-carboxamido)-N,N,N-trimethylbenzenaminium] | 1 to 10 µM

Same assay, conditions: Escherichia coli; E. coli BW25113; asterisk in column 10-50; read-out: MIC, μM 10-50

Row | Compound | MIC
7 | C[n+]1ccc(Oc2ccc(NC(=O)c3ccc(C(=O)Nc4ccc(Oc5cc[n+](C)cc5)cc4)c(N)c3)cc2)cc1 [Example 89, 4,4′-((((2-aminoterephthaloyl)bis(azanediyl))bis(4,1-phenylene))bis(oxy))bis(1-methylpyridin-1-ium)] | 10 to 50 µM
8 | C[n+]1ccc(NC(=O)c2ccc(C(=O)Nc3ccc(Nc4cc[n+](C)cc4)cc3)cc2)cc1 [Example 62, 1-methyl-4-(4-((4-((1-methylpyridin-1-ium-4-yl)amino)phenyl)carbamoyl)benzamido)pyridin-1-ium] | 10 to 50 µM
9 | C[n+]1ccc(NC(=O)c2ccc(-c3ccc(C(=O)Nc4cc[n+](C)cc4)cc3)cc2)cc1 [Example 8] | 10 to 50 µM

Same assay, conditions: Escherichia coli; E. coli BW25113; asterisk in column >50; read-out: MIC, μM >50

Row | Compound | MIC
10 | CN(C)c1ccc(NC(=O)c2ccc(-c3ccc(C(=O)Nc4ccc(N(C)C)c(F)c4)cc3)cc2)cc1 [Example 112] | > 50 µM
11 | Cc1cnccc1NC(=O)c1ccc(-c2ccc(C(=O)Nc3ccncc3C)cc2)cc1 [Example 28, N^4,N^4′-bis(3-methylpyridin-4-yl)-[1,1′-biphenyl]-4,4′-dicarboxamide] | > 50 µM
12 | C[N+](C)(C)c1ccc(NC(=O)c2ccc(-c3ccc(C(=O)Nc4ccc([N+](C)(C)C)c(OCCCc5cn(CCOCCOCCOCCNC(=O)CCCC[C@@H]6SC[C@@H]7NC(=O)N[C@@H]76)nn5)c4)cc3)cc2)cc1F [Example 137] | > 50 µM
13 | CN(C)c1ccc(NS(=O)(=O)c2ccc(-c3ccc(S(=O)(=O)Nc4ccc(N(C)C)cc4)cc3)cc2)cc1 [Example 70, N^4, N^4′-bis(4-(dimethylamino)phenyl)-[1,1′-biphenyl]-4,4′-disulfonamide] | > 50 µM
14 | CN(C)c1ccc(NC(=O)c2ccc(-c3ccc(C(=O)Nc4ccc(N(C)C)c([N+](=O)[O-])c4)cc3)c(S(C)(=O)=O)c2)cc1 [Example 140] | > 50 µM
15 | C#CCCN(C)c1ccc(NC(=O)c2ccc(-c3ccc(C(=O)Nc4ccc(N(C)C)c(F)c4)cc3)cc2)cc1F [Example 139] | > 50 µM
16 | C[N+](C)(C)c1ccc(NC(=O)c2ccc(-c3ccc(C(=O)Nc4ccc([N+](C)(C)CCCc5cn(CCOCCOCCOCCNC(=O)CCCC[C@@H]6SC[C@@H]7NC(=O)N[C@@H]76)nn5)c(F)c4)cc3)cc2)cc1F [Example 133] | > 50 µM
17 | O=C(Nc1ccc(Oc2ccncc2)cc1)c1ccc(C(=O)Nc2ccc(Oc3ccncc3)cc2)cc1 [Example 11, N^1,N^4-bis(4-(pyridin-4-yloxy)phenyl)terephthalamide] | > 50 µM
18 | COc1cc(NC(=O)c2ccc(-c3ccc(C(=O)Nc4ccc(N(C)C)c(OC)c4)cc3)cc2)ccc1N(C)C [Example 33, N^4,N^4′-bis(4-(dimethylamino)-3-methoxyphenyl)-[1,1′-biphenyl]-4,4′-dicarboxamide] | > 50 µM
19 | O=C(Nc1ccncc1)c1ccc2cc(C(=O)Nc3ccncc3)ccc2c1 [Example 3, N^2,N^6-di(pyridin-4-yl)naphthalene-2,6-dicarboxamide] | > 50 µM
20 | O=C(Nc1ccc(-c2ccncc2)cc1)c1ccc(C(=O)Nc2ccc(-c3ccncc3)cc2)cc1 [Example 54, N^1,N^4-bis(4-(pyridin-4-yl)phenyl)terephthalamide] | > 50 µM
21 | C[N+](C)(C)c1ccc(NC(=O)c2ccc(-c3ccc(C(=O)Nc4ccc([N+](C)(C)C)c(F)c4)cc3)cc2)cc1 [Example 130] | > 50 µM
22 | C[n+]1ccc(C(=O)Nc2ccc(-c3ccc(NC(=O)c4cc[n+](C)cc4)cc3)cc2)cc1 [Example 85, 4,4′-(([1,1′-biphenyl]-4,4′-diylbis(azanediyl))bis(carbonyl))bis(1-methylpyridin-1-ium)] | > 50 µM
23 | C#CCCCCOc1cc(NC(=O)c2ccc(-c3ccc(C(=O)Nc4ccc(N(C)C)c(F)c4)cc3)cc2)ccc1N(C)C [Example 95, N^4-(4-(dimethylamino)-3-(hex-5-yn-1-yloxy)phenyl)-N^4′-(4-(dimethylamino)-3-fluorophenyl)-[1,1′-biphenyl]-4,4′-dicarboxamide] | > 50 µM
24 | C#CCCCC[N+](C)(C)c1ccc(NC(=O)c2ccc(-c3ccc(C(=O)Nc4ccc([N+](C)(C)C)c(F)c4)cc3)cc2)cc1F [Example 121] | > 50 µM
25 | Cc1cc(C(=O)Nc2ccc([N+](C)(C)C)c(F)c2)ccc1-c1ccc(C(=O)Nc2ccc([N+](C)(C)C)c(F)c2)cc1 [Example 91, 4,4′-((2-methyl-[1,1′-biphenyl]-4,4′-dicarbonyl)bis(azanediyl))bis(2-fluoro-N,N,N-trimethylbenzenaminium)] | > 50 µM

Row | Compound | MIC
26 | CN(C)c1ccc(CNC(=O)c2ccc(-c3ccc(C(=O)NCc4ccc(N(C)C)cc4)cc3)cc2)cc1 [Example 101, N^4,N^4′-bis(4-(dimethylamino)benzyl)-[1,1′-biphenyl]-4,4′-dicarboxamide] | > 50 µM
27 | COc1cc(NC(=O)c2ccc(-c3ccc(C(=O)Nc4ccc(N(C)C)c(F)c4)cc3)cc2)ccc1N(C)C [Example 97, N^4-(4-(dimethylamino)-3-fluorophenyl)-N^4′-(4-(dimethylamino)-3-methoxyphenyl)-[1,1′-biphenyl]-4,4′-dicarboxamide] | > 50 µM
28 | O=C(Nc1ccc(Nc2ccncc2)cc1)c1ccc(C(=O)Nc2ccc(Nc3ccncc3)cc2)c(OC(F)(F)F)c1 [Example 43, N^1,N^4-bis(4-(pyridin-4-ylamino)phenyl)-2-(trifluoromethoxy)terephthalamide] | > 50 µM
29 | O=S(=O)(Nc1ccncc1)c1ccc(-c2ccc(S(=O)(=O)Nc3ccncc3)cc2)cc1 [Example 26, N^4,N^4′-di(pyridin-4-yl)-[1,1′-biphenyl]-4,4′-disulfonamide] | > 50 µM
30 | Cc1cc(NC(=O)c2ccc(-c3ccc(C(=O)Nc4ccc(N(C)C)c(C)c4)cc3)cc2)ccc1N(C)C [Example 36, N^4,N^4′-bis(4-(dimethylamino)-3-methylphenyl)-[1,1′-biphenyl]-4,4′-dicarboxamide] | > 50 µM
31 | O=C(Nc1ccncc1)[C@H]1CC[C@H](C(=O)Nc2ccncc2)CC1 [Example 5, (E)-N^1,N^4-di(pyridin-4-yl)cyclohexane-1,4-dicarboxamide] | > 50 µM
32 | O=C(Nc1ccc(Nc2ccncc2)cc1)c1ccc(-c2ccccc2)cc1 [Example 15, N-(4-(pyridin-4-ylamino)phenyl)-[1,1′-biphenyl]-4-carboxamide] | > 50 µM
33 | COc1cc(Nc2cc[n+](C)cc2)ccc1NC(=O)c1ccc(C(=O)Nc2cc[n+](C)cc2)cc1 [Example 63, 4-(4-((2-methoxy-4-((1-methylpyridin-1-ium-4-yl)amino)phenyl)carbamoyl)benzamido)-1-methylpyridin-1-ium] | > 50 µM
34 | O=C(Nc1ccc(Nc2ccncc2)cc1)c1ccc(C(=O)Nc2ccc(Nc3ccncc3)cc2)c([N+](=O)[O-])c1 [Example 24, 2-nitro-N^1,N^4-bis(4-(pyridin-4-ylamino)phenyl)terephthalamide] | > 50 µM
35 | C[N+](C)(C)c1ccc(NC(=O)c2ccc(-c3ccc(C(=O)Nc4ccc([N+](C)(C)C)c(OCCCCCCCCc5cn(CCOCCOCCONC(=O)CCCC[C@@H]6SC[C@@H]7NC(=O)N[C@@H]76)nn5)c4)cc3)cc2)cc1F [Example 135] | > 50 µM
36 | C[N+](C)(C)c1ccc(NS(=O)(=O)c2ccc(-c3ccc(S(=O)(=O)Nc4ccc([N+](C)(C)C)cc4)cc3)cc2)cc1 [Example 71] | > 50 µM
37 | CN(C)c1ccc(NC(=O)c2ccc(-c3ccc(C(=O)Nc4ccc(N(C)C)c(C(F)(F)F)c4)cc3)cc2)cc1C(F)(F)F [Example 74, N^4,N^4′-bis(4-(dimethylamino)-3-(trifluoromethyl)phenyl)-[1,1′-biphenyl]-4,4′-dicarboxamide] | > 50 µM
38 | CN(C)c1ccc(NC(=O)c2ccc(-c3ccc(C(=O)Nc4ccc(N(C)C)cc4)cn3)nc2)cc1 [Example 72, N^5,N^5′-bis(4-(dimethylamino)phenyl)-[2,2′-bipyridine]-5,5′-dicarboxamide] | > 50 µM
39 | COC(=O)Cn1cc(C[N+](C)(C)c2ccc(NC(=O)c3ccc(-c4ccc(C(=O)Nc5ccc([N+](C)(C)C)c(F)c5)cc4)cc3)cc2F)nn1 [Example 108] | > 50 µM
40 | C[n+]1ccc(-c2ccc(NC(=O)c3ccc(-c4ccc(C(=O)Nc5ccc(-c6cc[n+](C)cc6)cc5)cc4)cc3)cc2)cc1 [Example 59, 4,4′-((([1,1′-biphenyl]-4,4′-dicarbonyl)bis(azanediyl))bis(4,1-phenylene))bis(1-methylpyridin-1-ium)] | > 50 µM
41 | C[N+](C)(C)c1ccc(NC(=O)c2ccc(-c3ccc(C(=O)Nc4ccc([N+](C)(C)Cc5cn(CCOCCOCCOCCNC(=O)CCCC[C@@H]6SC[C@@H]7NC(=O)N[C@@H]76)nn5)c(F)c4)cc3)cc2)cc1F [Example 134] | > 50 µM
